The supplement of paper PMC10307832

Legend:
Assay in all cases: relative viability (nuclei count vs DMSO), 5 days (fraction); higher = more cells survive
Ispinesib + Olaparib = compound: Cc1ccc(C(=O)N(CCCN)[C@@H](c2nc3cc(Cl)ccc3c(=O)n2Cc2ccccc2)C(C)C)cc1 [Ispinesib] + O=C(c1cc(Cc2n[nH]c(=O)c3ccccc23)ccc1F)N1CCN(C(=O)C2CC2)CC1 [Olaparib] (partner 8 µM)
How it was run: (§1)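 Relative viability equals treated-well nuclei counts divided by vehicle-well nuclei counts. Counts came from 4× images of lung cancer cell lines grown in 1536-well plates for 5 days after pin-tool dosing on the day after seeding. Dosing used one drug alone or a fixed anchor-drug dose plus five library-drug doses (not always all listed) in √10 steps, and values are medians of duplicate plates.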

Linsitinib + Foretinib = compound: C[C@]1(O)C[C@@H](c2nc(-c3ccc4ccc(-c5ccccc5)nc4c3)c3c(N)nccn32)C1 [Linsitinib] + COc1cc2c(Oc3ccc(NC(=O)C4(C(=O)Nc5ccc(F)cc5)CC4)cc3F)ccnc2cc1OCCCN1CCOCC1 [Foretinib] (partner 0.25 µM)
How it was run: as §1

Ispinesib + Palbociclib = compound: Cc1ccc(C(=O)N(CCCN)[C@@H](c2nc3cc(Cl)ccc3c(=O)n2Cc2ccccc2)C(C)C)cc1 [Ispinesib] + CC(=O)c1c(C)c2cnc(Nc3ccc(N4CCNCC4)cn3)nc2n(C2CCCC2)c1=O [Palbociclib] (partner 0.5 µM)
How it was run: as §1

Ispinesib + Alpelisib = compound: Cc1ccc(C(=O)N(CCCN)[C@@H](c2nc3cc(Cl)ccc3c(=O)n2Cc2ccccc2)C(C)C)cc1 [Ispinesib] + Cc1nc(NC(=O)N2CCC[C@H]2C(N)=O)sc1-c1ccnc(C(C)(C)C(F)(F)F)c1 [Alpelisib] (partner 2 µM)
How it was run: as §1

Cell Line	relative viability (Ispinesib + Olaparib; first compound 0.001 µM)	relative viability (Ispinesib + Olaparib; first compound 0.003162 µM)	relative viability (Ispinesib + Olaparib; first compound 0.01 µM)	relative viability (Ispinesib + Olaparib; first compound 0.03162 µM)	relative viability (Ispinesib + Olaparib; first compound 0.1 µM)	relative viability (Linsitinib + Foretinib; first compound 0.01 µM)	relative viability (Linsitinib + Foretinib; first compound 0.03162 µM)	relative viability (Linsitinib + Foretinib; first compound 0.1 µM)	relative viability (Linsitinib + Foretinib; first compound 1 µM)	relative viability (Ispinesib + Palbociclib; first compound 0.001 µM)	relative viability (Ispinesib + Palbociclib; first compound 0.003162 µM)	relative viability (Ispinesib + Palbociclib; first compound 0.01 µM)	relative viability (Ispinesib + Palbociclib; first compound 0.03162 µM)	relative viability (Ispinesib + Palbociclib; first compound 0.1 µM)	relative viability (Ispinesib + Alpelisib; first compound 0.001 µM)	relative viability (Ispinesib + Alpelisib; first compound 0.003162 µM)	relative viability (Ispinesib + Alpelisib; first compound 0.01 µM)	relative viability (Ispinesib + Alpelisib; first compound 0.03162 µM)	relative viability (Ispinesib + Alpelisib; first compound 0.1 µM)	relative viability (Linsitinib + Foretinib; first compound 0.3162 µM)
NCI-H647	0.749	0.545	0.681	0.172	0.143	1.14	1.23	1.19	1.17	0.393	0.327	0.518	0.208	0.0953	1.38	1.26	1.66	0.192	0.14	–
NCI-H1734	0.613	0.658	0.64	0.675	0.449	0.827	0.866	0.801	0.604	0.396	0.224	0.41	0.346	0.279	0.659	0.743	0.763	0.721	0.517	0.795
SK-LU-1	0.606	0.449	0.393	0.435	0.356	0.813	–	0.804	0.72	0.323	0.412	0.379	0.312	0.325	1.08	1.01	1.15	0.773	0.383	0.712
NCI-H1395	0.436	0.446	0.439	0.369	0.356	0.98	1.01	1	0.998	0.721	0.642	0.412	0.444	0.463	1.14	0.945	0.87	0.398	0.493	0.957
COR-L23	0.31	0.34	0.308	0.226	0.138	0.892	0.996	0.905	0.861	0.261	0.267	0.217	0.148	0.171	0.827	0.948	1.08	0.144	0.16	0.834
EMC-BAC-2	0.479	0.474	0.513	0.418	0.325	0.95	0.979	1.1	0.819	0.509	0.556	0.506	0.432	0.431	0.815	0.752	0.917	0.548	0.526	0.907
NCI-H1355	0.736	0.806	0.889	0.736	0.328	0.973	0.964	0.873	0.759	0.397	0.425	0.436	0.373	0.331	0.841	0.866	0.979	0.596	0.859	0.811
NCI-H1944	0.436	0.454	0.491	0.418	0.406	0.921	1.02	0.821	0.674	0.347	0.35	0.353	0.279	0.304	0.861	0.803	0.851	0.508	0.634	0.674
ABC-1	1.04	0.955	0.838	–	0.41	1.23	0.924	1.05	1.76	0.578	0.665	0.765	–	0.49	1.36	0.881	1.25	0.343	0.315	0.747
HOP-62	0.62	0.215	0.341	0.312	0.186	1.09	1.05	1.06	1.16	0.448	0.548	0.617	0.516	0.388	0.656	0.957	0.908	1.17	0.981	–
NCI-H2009	0.735	0.678	0.793	0.859	0.257	1.25	1.18	1.26	1.24	0.234	0.153	0.222	0.113	0.169	1.16	1.18	1.33	1.04	0.463	–
